This is an account of results in PMC9268553 (Molecules, 2022).

Each structure is given as a SMILES string. “And” between values parts separate entries of the source, which are not always exact repeats. Equal values may be shown once. Read-outs that look alike come from different tables or passages of the source. Bounds are passed on as bounds.

Assay [1] concerns the target T1, human fXa (Homo sapiens, UniProt P00742).
T1 construct: purchased Chromogenix AB-Instrumentation Laboratories (Milan, Italy)
The assay can be described thus: biochemical.

In assay [2] the target is T2, bovine thrombin (Bos taurus, UniProt P00735).
T2 construct: purchased Sigma-Aldrich (Milan, Italy)
In words: thrombin inhibition, chromogenic substrate S-2238. Type of assay: biochemical.

In assay [3] the target is α-chymotrypsin (Bos taurus, UniProt P00766). In words: α-chymotrypsin inhibition. Type of assay: biochemical. As to conditions: read-out: Ki αCHT.
Assay [4] addresses T3, AChE (from electric eel) (Electrophorus electricus, UniProt O42275).
T3 construct: AChE (from electric eel); from tissue
The assay can be described thus: biochemical. As to conditions: for inhibition at 50 µM: read-out: inhibition percentage AchE.

For assay [5], the target named is T4, BChE (from horse serum) (Equus caballus, UniProt P81908).
T4 construct: BChE (from horse serum); from tissue; host or cells: horse serum
T4 sequence (P81908 whole entry): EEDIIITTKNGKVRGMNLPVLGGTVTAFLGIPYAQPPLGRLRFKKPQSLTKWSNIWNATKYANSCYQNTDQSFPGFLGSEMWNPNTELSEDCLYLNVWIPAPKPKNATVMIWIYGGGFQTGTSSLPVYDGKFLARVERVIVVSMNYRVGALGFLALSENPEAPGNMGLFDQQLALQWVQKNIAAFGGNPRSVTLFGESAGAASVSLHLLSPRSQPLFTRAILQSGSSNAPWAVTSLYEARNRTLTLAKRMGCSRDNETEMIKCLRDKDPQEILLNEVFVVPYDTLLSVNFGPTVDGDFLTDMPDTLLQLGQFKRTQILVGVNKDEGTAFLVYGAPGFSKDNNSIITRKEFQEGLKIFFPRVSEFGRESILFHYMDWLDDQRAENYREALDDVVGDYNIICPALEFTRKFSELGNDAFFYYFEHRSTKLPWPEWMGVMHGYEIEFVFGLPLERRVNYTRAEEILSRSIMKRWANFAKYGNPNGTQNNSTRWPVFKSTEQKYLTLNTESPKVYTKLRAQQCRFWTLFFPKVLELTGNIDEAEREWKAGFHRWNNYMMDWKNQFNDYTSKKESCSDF
In words: biochemical. Conditions: for inhibition at 50 µM: read-out: inhibition percentage BchE.

Setting [6] is: Cheng–Prusoff from IC50, pH 8, mean of three measurements, read-out: Ki fXa.
[7] abbreviates: electric eel AChE, Cheng–Prusoff from IC50, read-out: Ki AchE.
Setting [8] is: horse serum BChE, Cheng–Prusoff from IC50.

Usually Ki stands for the equilibrium dissociation constant of an inhibitor or competing ligand from its target. In general, inhibition refers to the share of the control response that was lost under treatment.

T1 sequence (P00742 235-488 limits assumed): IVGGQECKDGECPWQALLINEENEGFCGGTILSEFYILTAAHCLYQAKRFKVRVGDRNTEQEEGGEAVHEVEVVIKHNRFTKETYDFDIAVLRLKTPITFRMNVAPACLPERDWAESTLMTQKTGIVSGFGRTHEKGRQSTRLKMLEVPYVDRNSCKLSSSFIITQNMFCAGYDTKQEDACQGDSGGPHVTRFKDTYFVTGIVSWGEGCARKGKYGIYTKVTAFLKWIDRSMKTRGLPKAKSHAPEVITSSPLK
T1 sequence (P00742 41-179 partner limits assumed): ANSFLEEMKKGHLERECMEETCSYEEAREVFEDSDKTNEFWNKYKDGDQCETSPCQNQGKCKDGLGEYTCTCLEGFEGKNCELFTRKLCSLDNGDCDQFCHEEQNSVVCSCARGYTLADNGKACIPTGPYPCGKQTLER
T3 sequence (O42275 24-633): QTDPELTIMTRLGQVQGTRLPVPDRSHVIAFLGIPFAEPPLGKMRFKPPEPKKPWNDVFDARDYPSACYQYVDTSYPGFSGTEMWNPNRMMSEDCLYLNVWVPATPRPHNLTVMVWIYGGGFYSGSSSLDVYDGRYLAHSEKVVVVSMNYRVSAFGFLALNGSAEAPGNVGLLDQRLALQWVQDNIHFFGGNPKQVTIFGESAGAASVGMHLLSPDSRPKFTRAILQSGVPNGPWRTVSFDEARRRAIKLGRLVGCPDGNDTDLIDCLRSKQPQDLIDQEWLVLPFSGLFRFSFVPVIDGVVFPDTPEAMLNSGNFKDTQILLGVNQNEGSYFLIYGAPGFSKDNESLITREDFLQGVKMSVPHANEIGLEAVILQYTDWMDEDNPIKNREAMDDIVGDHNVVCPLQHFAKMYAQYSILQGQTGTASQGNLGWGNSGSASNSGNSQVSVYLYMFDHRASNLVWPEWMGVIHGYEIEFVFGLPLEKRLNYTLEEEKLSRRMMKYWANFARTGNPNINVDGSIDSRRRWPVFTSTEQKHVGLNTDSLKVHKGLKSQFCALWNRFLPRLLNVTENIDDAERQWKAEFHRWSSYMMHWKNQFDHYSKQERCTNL

As to `N=C(N)c1ccc(NC(=O)CNC(=O)Cc2ccccc2)cc1` [Compound 4a], the Ki was > 50 µM in assay [1] (setting [6]) and 39.4 µM in assay [2].

For the compound `N=C(N)c1cccc(NC(=O)CNC(=O)Cc2ccccc2)c1` [Compound 4b], the Ki was 25.6 µM in assay [1] (setting [6]) and 24.1 µM in assay [2].

Consider `N=C(N)c1cccc(NC(=O)CNC(=O)Cc2ccc(-c3ccc(F)cc3F)cc2)c1` [Compound 4c], for which the Ki in assay [1] (setting [6]) was found to be 1.01 µM; in assay [2], 10.7 µM; in assay [3] it was 35 µM. The “decrease of anti-fXa activity from malonamide 19h to glycinamide 4c” value in assay [1] (ratio of Ki, relative to 19h) is on record as “about 20 times”.

As to `N=C(N)c1ccc(NC(=O)CC(=O)NCc2ccccc2)cc1` [Compound 18a], the figures for the Ki in assay [1] (setting [6]) and in assay [2] were 23.2 µM and > 50 µM, respectively.

On to `N=C(N)c1cccc(NC(=O)CC(=O)NCc2ccccc2)c1` [Compound 18b], for which the Ki in assay [1] (setting [6]) is 12.3 µM; in assay [2], > 50 µM.

On to `N=C(N)c1ccc(NC(=O)CC(=O)NCCc2ccccc2)cc1` [Compound 18c], for which the Ki in assay [1] (setting [6]) and in assay [2] was > 50 µM each time.

Take `N=C(N)c1ccc(NC(=O)CC(=O)NCCCc2ccccc2)cc1` [Compound 18d]: the results for the Ki in assay [1] (setting [6]) and in assay [2] were 39.8 µM and 25.5 µM, respectively.

With `N=C(N)c1ccc(NC(=O)CC(=O)NCCCCc2ccccc2)cc1` [Compound 18e], the values for the Ki in assay [1] (setting [6]) and in assay [2] were 18.6 µM and 5.5 µM, respectively.

Take `Cc1ccc(CNC(=O)CC(=O)Nc2ccc(C(=N)N)cc2)cc1` [Compound 19a]: the Ki in assay [1] (setting [6]) was found to be 4.4 µM; in assay [2] it was 36.5 µM.

For `Cc1ccc(CNC(=O)CC(=O)Nc2cccc(C(=N)N)c2)cc1` [Compound 19b], the Ki is 4.2 µM in assay [1] (setting [6]) and 36.6 µM in assay [2].

Take `N=C(N)c1ccc(NC(=O)CC(=O)NCc2ccc(-c3ccccc3)cc2)cc1` [Compound 19c]: the Ki in assay [1] (setting [6]) and in assay [2] was > 50 µM each time.

For `N=C(N)c1cccc(NC(=O)CC(=O)NCc2ccc(-c3ccccc3)cc2)c1` [Compound 19d], the Ki in assay [1] (setting [6]) was 1.56 µM; in assay [2] it was > 50 µM; in assay [3], 4.3 µM; in assay [4] (setting [7]), 9.33 µM. Besides, the inhibition at 50 µM in assay [5] was found to be 28%.

As to `N=C(N)c1cccc(NC(=O)CC(=O)NCc2ccc(-c3ccccc3F)cc2)c1` [Compound 19e], the inhibition constant Ki in assay [1] (setting [6]) was 0.93 µM and 0.932 µM; in assay [2] it was 14.6 µM; in assay [3] it was > 50 µM; in assay [5] (setting [8]), 7.7 µM. Further, the inhibition at 50 µM in assay [4] was 35%.

Take `N=C(N)c1cccc(NC(=O)CC(=O)NCc2ccc(-c3cccc(F)c3)cc2)c1` [Compound 19f]: the Ki is 0.35 µM and 0.348 µM in assay [1] (setting [6]); 18.8 µM in assay [2]; 26.5 µM in assay [3]; 8.11 µM in assay [4] (read-out: Ki AchE); 8.09 µM in assay [5].

On to `N=C(N)c1cccc(NC(=O)CC(=O)NCc2ccc(-c3ccc(F)cc3)cc2)c1` [Compound 19g], for which the Ki in assay [1] (setting [6]) is 0.91 µM and 0.907 µM; in assay [2] it was 6.19 µM; in assay [3] it was > 50 µM; in assay [4] (setting [7]) it was 4.48 µM. Also, the inhibition at 50 µM in assay [5] came to 37%.

Consider `N=C(N)c1cccc(NC(=O)CC(=O)NCc2ccc(-c3ccc(F)cc3F)cc2)c1` [Compound 19h], for which the Ki is 0.057 µM in assay [1] (setting [6]); 0.057 µM in assay [1] (read-out: Ki against fXa); 16.1 µM in assay [2]; > 50 µM in assay [3]; 2.44 µM in assay [4] (setting [7]); 1.52 µM in assay [5] (setting [8]).

As for `N=C(N)c1cccc(NC(=O)CC(=O)NCc2ccc(-c3cc(F)cc(F)c3)cc2)c1` [Compound 19i], the Ki in assay [1] (setting [6]) amounted to 0.264 µM; in assay [2], 26.7 µM; in assay [3], 30.2 µM; in assay [5] (setting [8]), 8.02 µM. Besides, the inhibition at 50 µM in assay [4] turned out to be 5%.

With `CC(C)(C(=O)NCc1ccc(-c2ccc(F)cc2F)cc1)C(=O)Nc1cccc(C(=N)N)c1` [Compound 19l], the Ki in assay [1] (setting [6]) is 0.214 µM; in assay [2], > 50 µM; in assay [3], > 50 µM; in assay [4] it was 3.74 µM; in assay [5] (setting [8]), 1.55 µM.

`N=C(N)c1cccc(NC(=O)CC(=O)Nc2cccc(OCCc3ccc(F)cc3)c2)c1` [Compound 20a]: the Ki was 0.413 µM in assay [1] (setting [6]); 12 µM in assay [2]; > 50 µM in assay [3]; 10 µM in assay [4] (setting [7]); 1.02 µM in assay [5] (setting [8]).

Take `COc1ccc(CCOc2cccc(NC(=O)CC(=O)Nc3cccc(C(=N)N)c3)c2)cc1` [Compound 20b]: the Ki in assay [1] (setting [6]) is 0.205 µM; in assay [2] it was 6.66 µM; in assay [3] it was > 50 µM; in assay [4] (setting [7]) it was 1.56 µM; in assay [5] (setting [8]), 5.84 µM.

As to `N=C(N)c1cccc(NC(=O)CC(=O)N2CCN(c3ccc(F)cc3)CC2)c1` [Compound 21a], the Ki in assay [1] (setting [6]) is 0.423 µM; in assay [2] it was 31.4 µM; in assay [3], > 50 µM; in assay [4] (setting [7]), 4.68 µM; in assay [5] (setting [8]), 10 µM.

Regarding `N=C(N)c1cccc(NC(=O)CC(=O)N2CCC(Oc3ccc(F)cc3)CC2)c1` [Compound 22a], the Ki was 0.35 µM in assay [1] (setting [6]), > 50 µM in assay [2], > 50 µM in assay [3] and 1.88 µM in assay [4] (setting [7]). Moreover, the inhibition at 50 µM in assay [5] is 22%.

Consider `N=C(N)c1cccc(NC(=O)CC(=O)N2CCC(Oc3ccc(F)cc3F)CC2)c1` [Compound 22b], for which the Ki is 0.089 µM in assay [1] (setting [6]), > 50 µM in assay [2], > 50 µM in assay [3] and 2.31 µM in assay [4] (setting [7]). For the same compound, the inhibition at 50 µM in assay [5] stood at 25%.

On to `N=C(N)c1cccc(NC(=O)CC(=O)N2CCC(Oc3ccc(F)c(F)c3)CC2)c1` [Compound 22c], for which the Ki in assay [1] (setting [6]) is 0.12 µM; in assay [2], 27 µM; in assay [3] it was > 50 µM; in assay [4] (setting [7]) it was 2.68 µM; in assay [5] (setting [8]), 10.9 µM.

As for `N=C(N)c1cccc(NC(=O)CC(=O)Nc2ccc(OC3CCNCC3)cc2)c1` [Compound 23a], the inhibitory constant (Ki) in assay [1] (setting [6]) was 0.59 µM; in assay [2], 42.4 µM; in assay [3] it was > 50 µM; in assay [5] (setting [8]), 10 µM. Further, the inhibition at 50 µM in assay [4] worked out at 1%.

Turning to `CC(C)N1CCC(Oc2ccc(NC(=O)CC(=O)Nc3cccc(C(=N)N)c3)cc2)CC1` [Compound 23b], the Ki in assay [1] (setting [6]) is 2.3 µM; in assay [2], > 50 µM; in assay [3] it was > 50 µM; in assay [4] (setting [7]), 1.3 µM; in assay [5] (setting [8]), 0.65 µM.
